Data on three compounds can be found in patent publication US20110166417A1, “METHOD AND DEVICE FOR REPAIR OF DEGENERATIVE CARTILAGE” (THE REGENTS OF UNIVERSITY OF MICHIGAN, priority 2008, published 2011).

The test system of data set [1] is BMP-2, aggrecan and type II collagen mRNA expression in rat IVD cells. The experiment in a line: Mevalonate experiment. The format is cell-based. To be noted: mevalonate 200 μM.
The next data set concerns rat IVD cells. The experiment in a line: MTT assay, cell viability. The format is cell-based. How it is done: MTT assay. Cell proliferation was determined by a modified MTT assay (Sigma-Aldrich) (47, 48). Briefly, at each time point, the medium was aspirated and washed with PBS once. MTT solution (0.5 mg/ml) in PBS was added and incubated at 37° C. for 1.5 hr. The cells were removed from the alginate bead and pelleted by centrifugation. The cell pellet was then washed with D-PBS once and 10% Triton X-100, 0.1 N HCl in 2-propanol solution was added to each well to dissolve the formazan at 4° C. for 3 hrs. The dissolved solution was centrifuged and the absorbance was determined immediately using a spectrophotometer at 540 nm wavelength filter. All experiments were performed in triplicate.
(Tetrazolium assays rely on reduction of a dye to a coloured formazan, in cell work by metabolically active cells.)

The subject of data set [2] is BMP-2, aggrecan and collagen II mRNA expression in IVD cells. The experiment in a line: Quantitative real-time PCR, monolayer culture. The format is cell-based, Sprague-Dawley rats. To be noted: 3 μM, maximal at day 3. The source says:
(§1) Disc cell isolation: Nucleus pulposus and inner anulus fibrosus cells of lumbar intervertebral discs from Sprague-Dawley rats were harvested by the enzymatic digestion and grown in monolayer until reached confluence.
(§2) Monolayer and Three-dimensional cell culture: Cells were trypsinized and subcultured in 12-well plate or embedded and cultured in alginate beads supplemented with complete DMEM/F12 medium after primary culture.
Quantitative real-time PCR: Total RNAs were extracted and cDNAs were synthesized using Invitrogen […]™ first-strand synthesis kit.

The test system of data set [3] is BMP-2, aggrecan and type II collagen mRNA expression in rat IVD cells. The experiment in a line: Quantitative real-time PCR, 3-D culture in alginate beads. The format is cell-based, Sprague-Dawley rats. An excerpt: Monolayer and Three-dimensional cell culture: Cells were trypsinized and subcultured in 12-well plate or embedded and cultured in alginate beads supplemented with complete DMEM/F12 medium after primary culture. […] Quantitative real-time PCR: […] IVD Cell Isolation. Lumbar IVDs from Sprague-Dawley rats (Harlan Sprague-Dawley, Indianapolis, Ind.) aged 6-8 weeks were harvested immediately after euthanasia. NP and inner AF, including the transition zone (the area between the AF and the NP) were carefully removed from the disc and placed in DMEM/F12 medium (Gibco, Grand Island, N.Y.). […] Louis, Mo.) and 0.004% deoxyribonuclease II (Sigma-Aldrich) for 90 min at 37° C. under gentle agitation. The tissues were washed 3 times with Dulbecco's phosphate buffered saline (D-PBS) followed by digestion under the same conditions, except that the pronase was replaced with 0.04% collagenase type II (Sigma-Aldrich) for 6 hrs. […] Culture medium was changed on day 6 after cell seeding, and twice per week thereafter. Cell Culture in Alginate Beads. When the primary cell culture became confluent, the cells were trypsinized and washed twice with D-PBS and re-suspended in sterile 0.15 M NaCl containing 1.2% low-viscosity alginate (Sigma-Aldrich) at a density of 1×10^6 cells/ml. […] After 15 min, the newly formed alginate beads (containing about 12,000 cells/bead) were washed 3 times with sterile 0.15 M NaCl solution followed by 2 washes with DMEM/F-12 medium. […] Three days later, the medium was changed and treated with different doses of simvastatin (LKT Laboratories, St. […] To remove cells from the alginate bead, wells were rinsed 3 times with 0.15 M NaCl with gentle pipetting into the well. The rinse solution was incubated for 1 min and was aspirated off. Dissolving buffer (55 mmol/L sodium citrate and 0.15 M NaCl, pH 6.0) 3 times the volume of alginate was added to the wells, and plates were incubated at 37° C. for 15 min with gentle shaking. Cells were pelleted by centrifugation and the dissolved solution was collected for sGAG content measurement. The cell pellet was washed with D-PBS once and collected for DNA content determination or RNA extraction. All experiments were performed in triplicate. RNA Isolation and Reverse Transcription. Total RNA was extracted using the Trizol (Invitrogen, Carlsbad, Calif.) reagent followed by RNeasy Mini Kit (Qiagen, Inc., Valencia, Calif.) and DNase digestion with the RNase-free DNase set (Qiagen). Concentration of total RNA was determined at 260 nm with a spectrophotometer. Reverse transcription was carried out at 42° C. for 50 min in 20-μL volume with 100 ng of total RNA using the SuperScript First-Strand Synthesis System (Invitrogen, Carlsbad, Calif.). Quantitative Real-Time Polymerase Chain Reaction. Real-time polymerase chain reaction (PCR) was used to quantify gene expression levels of type II collagen, aggrecan, and BMP-2. GAPDH was used as an internal control and the TAQMAN® Real-Time PCR Kit (Applied Biosystems, Foster City, Calif.) was implemented. Reaction volume of 30 μl included 1 μL of cDNA, 1.5 ul of 20× of each primer/probe, and 12.5 μL of TAQMAN® PCR Master Mix (2×) (Applied Biosystems). Real-time PCR was performed using the following 3-step protocol: Step 1, 50° C. for 2 min; Step 2, 95° C. for 10 min; and Step 3, (95° C. for 15 sec, 60° C. for 1 min) times 45 cycles using the Gene Amp 7700 Sequence Detection System (Applied Biosystems). A positive standard curve for each primer was obtained by real-time PCR with serially-diluted cDNA sample mixture. The reaction efficacy of each gene was determined using the standard curves. The quantity of gene expression of aggrecan, type II collagen, and BMP-2 were calculated with standard samples and normalized with GAPDH internal control.
(In qPCR the cycle at which signal appears reflects the starting amount.)

The test system of a further data set is IVD cells. The experiment in a line: IVD cell proliferation / range of cell tolerance. The format is cell-based, Sprague-Dawley rats. To be noted: rat IVD cells.
From the text: as §1, §2

The target of a further data set is T1, BMP-2 (Homo sapiens, UniProt P12643).
T1 sequence (P12643 283-396): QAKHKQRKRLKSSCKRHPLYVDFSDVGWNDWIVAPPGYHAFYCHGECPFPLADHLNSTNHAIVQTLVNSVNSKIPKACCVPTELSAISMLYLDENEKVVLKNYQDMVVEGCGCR
The conditions noted are these: noggin 3 μg/ml; cited from earlier work.

In data set [4] the test system is aggrecan and type II collagen mRNA expression in rat IVD cells. The experiment in a line: BMP inhibition experiment (noggin). The format is cell-based. How it is done:
BMP Inhibition Experiment. […] On day 7 and/or day 14, the cells were removed from the alginate beads and the gene expression of type II collagen and aggrecan was determined.

[5] abbreviates: noggin 3 μg/ml, simvastatin 3 μM, day 14.

Regarding `CC(O)(CCO)CC(=O)O` (stereo not drawn) [Mevalonate, mevalonate], in data set [1] (alginate beads), the “aggrecan, type II collagen and BMP-2 gene expression, mevalonate alone” value is “had no effect”. In data set [1] (simvastatin 3 μM, days 7 and 14), the “effect on gene expression (BMP-2, aggrecan, type II collagen) upregulated by simvastatin” value is recorded as “completely reversed”.

With `CCC(C)(C)C(=O)O[C@H]1C[C@@H](C)C=C2C=C[C@H](C)[C@H](CC[C@@H]3C[C@@H](O)CC(=O)O3)[C@H]21` [simvastatin], the IVD cell viability result was “had no effect” in the data set on rat IVD cells (0.3 μM, time points tested); “significant decrease” in the data set with rat IVD cells (1 μM, from day 3 and thereafter); “decreased” in the data set on rat IVD cells (3 μM, all time points tested). The “increase of BMP-2 mRNA expression” value worked out at 2 fold in data set [2] and 5 fold in data set [3] (3-D culture, 3 μM, peak level at day 7). Further, the “increase of collagen type II mRNA expression” value in data set [3] (3-D culture (alginate beads), 3 μM, day 21) worked out at 16 fold. In data set [3] (3-D culture, 3 μM, day 21), the “increase of aggrecan mRNA expression” value was 11 fold. For the same compound, the “day of maximal type II collagen mRNA expression” value in data set [3] (alginate beads) stood at 21 days. Besides, the “day of maximum BMP-2 mRNA expression” value in data set [3] (alginate beads, 3 μM) is 2 days. Besides, in data set [3] (alginate beads, 3 μM), the “day of maximum aggrecan mRNA expression” value is 21 days. In the data set with IVD cells, the “dose over which IVD cell proliferation was inhibited” value is “over 3 μM”.

Take Noggin: the “block of BMP-2 activity” value at BMP-2 is reported as “over 90%”. In data set [4] (noggin 500 ng/ml, no simvastatin), the “aggrecan and type II collagen mRNA expression, noggin alone” value is given as “had no interference”. Also, the “block of aggrecan and type II collagen gene expression upregulated by simvastatin” value in data set [4] (noggin 500 ng/ml, simvastatin 3 μM, day 7) is listed as “significantly blocked”; in data set [4] (noggin 500 ng/ml, simvastatin 3 μM, day 14) it was “did not endure”. Also, the “aggrecan and type II collagen gene expression compared with Veh+Veh, noggin alone” value in data set [4] (noggin 3 μg/ml) was “inhibited both gene expressions significantly”. In data set [4] (setting [5]), the “effect on aggrecan gene expression upregulated by simvastatin” value is given as “failed to block”. Further, the “effect on type II collagen gene expression upregulated by simvastatin” value in data set [4] (setting [5]) was “attenuated”; in data set [4] (noggin 3 μg/ml, simvastatin 3 μM, day 14, listed as noggin) it was “significantly attenuated”.
